Results as given in patent US11969400B2, “Ibuprofen for symptomatic treatment of diarrheas in HIV patients” (priority 2021, dated 2024).

Test system: noninfectious diarrhea in HIV positive subjects
Test: Randomized double-blinded study of Acetaminophen vs Ibuprofen suspension in HIV positive subjects with noninfectious diarrhea
Type: in vivo, human
Settings: for average number of stools twenty-four hours later: after 24 hours of treatment, clear liquid diet, range in brackets, two-tailed p <0.0001 between groups, 95% CI 1.44-2.6; for average number of stools on the first visit (day 1): baseline at first visit (day 1), 42 enrollees per group
Method: HIV positive subjects who present with noninfectious diarrhea are enrolled in a study. All enrollees are randomly divided into two groups A (Acetaminophen) and B (Ibuprofen) and treated for 24 hours. They receive a double-blinded suspension of either Acetaminophen or Ibuprofen during the study period. The enrollees are instructed to consume only a clear liquid diet during the study period. After 24 hours, the number of loose stools since last visit and status of hydration are reassessed. In addition, enrollees are examined and assessed for any possible side effects of the medications. A total of 84 patients are enrolled into the study. Both drug categories has 42 (50%) enrollees. Two patients are lost to follow up in each group. The average number of stools on the first visit (day 1) in group A (Acetaminophen) is 5.12 and the average number of stools in group B (ibuprofen) is 5.25. Twenty-four hours later, the average number of stools, in group A is 3.45 (1-5) and the average number of stool in group B, is 1.9 (0-4). The two-tailed p-value was <0.0001 with a confidence interval at 95% (1.44-2.6).

Structure (SMILES) | average number of stools twenty-four hours later | average number of stools on the first visit (day 1)
CC(=O)Nc1ccc(O)cc1 [Acetaminophen] | 3.45 (1-5) | 5.12
CC(C)Cc1ccc(C(C)C(=O)O)cc1 (stereo not shown) [ibuprofen] | 1.9 (0-4) | 5.25
